The conditions of the series: 303.15 K, 101.33 kPa, Liquid; for viscosity: Capillary tube (Ostwald / Ubbelohde) method; for speed of sound: Linear variable-path acoustic interferometer; for mass density: Pycnometric method.

Results on 4 compounds are retold here after the NIST ThermoML archive (doi:10.1016/j.fluid.2018.08.001).

Numbers after ± are expanded uncertainties.

Broadly, the viscosity is the resistance of a fluid to flow. For orientation: speed of sound means the propagation velocity of pressure waves in the medium. By mass density is commonly meant mass per unit of volume. As to `C1COCCO1` [1,4-dioxane], the viscosity was determined as 1.08 ± 0.04 mPa·s, the speed of sound is given as 1321 ± 1.9 m/s and the mass density stood at 1022.4 ± 1.1 kg/m3.
Regarding `NCc1ccccc1` [benzylamine], the viscosity came out at 1.43 ± 0.04 mPa·s, the speed of sound is 1538.2 ± 2.1 m/s and the mass density was 975.6 ± 1.1 kg/m3.
Turning to `CCCCCC` [hexane], the viscosity was 0.36 ± 0.04 mPa·s, the speed of sound came out at 1051.2 ± 1.9 m/s and the mass density came to 652.9 ± 1 kg/m3.
For the compound `C1CCOC1` [tetrahydrofuran], the viscosity amounted to 0.46 ± 0.04 mPa·s, the speed of sound is recorded as 1252.2 ± 1.9 m/s and the mass density was 876.5 ± 1.1 kg/m3.
